Assay results reported in patent US12527752B2, “Composition based on gellan gum and phenylephrine, production method and use as an ophthalmic product” (UNITHER PHARMACEUTICALS, priority 2019, dated 2026).

Test system: human corneal epithelial (HCE) cell line
Experiment: Cytotoxicity neutral red test
Format: cell-based
Conditions: HCE cells, 30 minutes incubation
Description: A human corneal epithelial (HCE) cell line was cultured in Dulbecco's essential medium (Eurobio, Les Ulis, France) supplemented with 10% fetal calf serum (Eurobio), 1% glutamine (Eurobio) and 1% penicillin and streptomycin (Eurobio). Cultures were maintained at 37° C. in 5% CO2 in a humidified incubator.
All wells were seeded with the same number of cells (9×10^4 cells/mL solution). After 24 hours, the cells reached about 70% to 80% confluency. The cells were washed with PBS and incubated for 30 minutes with 100 μL of gels in situ. […] The cells were then washed with PBS. A neutral red test was performed immediately after incubation and after 24 hours of recovery in the culture medium. The experiments were performed in triplicate.
The neutral red test (Fluka, Buchs, Switzerland) is a cell viability test based on the ability of viable cells to incorporate neutral red, which is a weak cationic dye that readily penetrates cell membranes by nonionic diffusion and accumulates in lysosomes. […] The integrity of the lysosomal membrane is closely related to cell viability and is assessed by neutral red fluorescence (excitation at 535 nm; emission at 600 nm). […] The dye was then released from the cells using 200 μL of lysis solution per well (1% acetic acid, 50% ethanol and 49% H2O), then the fluorescence was measured using a fluorometer for microplates (Safire; Tecan, Lyon, France).

CNC[C@H](O)c1cccc(O)c1 [PHE, phenylephrine]
effect on cell viability: significant cytotoxicity
